Test results from patent US4079135A, “Morpholine derivatives as antidepressants” (Imperial Chemical Industries Limited, priority 1973, dated 1978).
Where a name gives a salt, the structure may show the parent alone.

Experiments:
Oral LD50 in mice = settings: mouse, in vivo, dosed orally
Procedure: The compound of the invention 2-(4H-2,3-dihydro-1,4-benzoxazin-3-one-4-ylmethyl)morpholine hydrogen oxalate has an LD50 in mice of 800 mg./kg. when dosed orally.

[1] = tested on: reserpine-induced hypothermia in mice; experiment: RHL test: reversal of reserpine-induced hypothermia in mice; assay type: in vivo; settings: 4 hours, over a large number of tests, reserpine 2 mg./kg. s.c. 17 h before
Procedure: This effect is the one primarily used in the art for establishing the relative antidepressant activity in a series of chemically-related compounds. […] Pharmacol., 1962, 14, 509. The RHL test is carried out as follows:-
Mice are kept in a constant temperature room maintained at 21° ± 1° C. Each member of groups of 4 mice is given reserpine (2 mg. of base per kg. bodyweight, given subcutaneously as the acetate). Seventeen hours later the oesophageal temperature (TO) of each mouse is recorded by means of an orally-inserted probe coupled to an electric thermometer which is calibrated in degree Centigrade and which can be read to 0.1° C. Immediately after the temperature measurement the mice are dosed orally with the test compound, or with imipramine, each mouse in a group of 4 being given the same substance, and the oesophageal temperatures are again recorded after 4 hours (T4). The compound under test is dosed at serial dilutions, e.g. 100, 30, 3, 1, 0.3, 0.1 mg./kg. Imipramine is used as the control. […] At 1 mg./kg. it produces an average rise of 1.7° C. A test compound which at a certain dose level gives a rise in temperature equal to or greater than that given by 1 mg./kg. of imipramine, dosed to a different set of mice on the same day, is adjudged "active" at that dose.

Question: With O=C1COc2ccccc2N1CC1CNCCO1 (stereo not drawn) [2-(4H-2,3-dihydro-1,4-benzoxazin-3-one-4-ylmethyl)morpholine hydrogen oxalate] as the compound, how does the LD50 (Oral LD50 in mice) read?
Answer: 800 mg/kg

Question: Which “average rise in the temperature of a reserpinised mouse” value ([1]; 1 mg./kg. oral) does the source give for CN(C)CCCN1c2ccccc2CCc2ccccc21 [imipramine] here?
Answer: 1.7 °C

Question: What about the “average rise in the temperature of a reserpinised mouse” value ([1]; 3 mg./kg. oral) of the same compound?
Answer: 3 °C
